Assays:
Experiment in all cases: relative viability (nuclei count vs DMSO), 5 days (fraction); higher = more cells survive
[1] = system: NCI-H520
Method in brief: (§1)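 For relative viability, nuclei counts in treated wells were divided by those in vehicle wells. Lung cancer cell lines had been pin-tool dosed in 1536-well plates the day after seeding and cultured for 5 days, then fixed and stained in one step (final 0.05% Triton X-100, 1% formaldehyde, 1 ug/ml Hoechst) and imaged at 4×. Doses were one drug alone or a fixed anchor-drug dose plus five library-drug doses (not always all listed) in √10 steps, and values are duplicate-plate medians.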

[2] = system: Calu-6
Method in brief: as §1

[3] = system: EBC-1
Method in brief: as §1

[4] = system: IA-LM
Method in brief: as §1

[5] = system: NCI-H1355
Method in brief: as §1

[6] = system: NCI-H1703
Method in brief: as §1

[7] = system: NCI-H1299
Method in brief: as §1

[8] = system: A549
Method in brief: as §1

NC(=O)Nc1cc(-c2cccc(F)c2)sc1C(=O)N[C@H]1CCCNC1 [AZD7762] + CS(=O)(=O)CCNCc1ccc(-c2ccc3ncnc(Nc4ccc(OCc5cccc(F)c5)c(Cl)c4)c3c2)o1 [Lapatinib] (partner 2 µM)
relative viability ([1]; first compound 0.01 µM): 0.825 | relative viability ([1]; first compound 0.03162 µM): 0.864 | relative viability ([1]; first compound 0.1 µM): 0.735 | relative viability ([1]; first compound 0.3162 µM): 0.304 | relative viability ([1]; first compound 1 µM): 0.254 | relative viability ([2]; first compound 0.01 µM): 1.11 | relative viability ([2]; first compound 0.03162 µM): 1.02 | relative viability ([2]; first compound 0.1 µM): 0.96 | relative viability ([2]; first compound 0.3162 µM): 0.2 | relative viability ([2]; first compound 1 µM): 0.147 | relative viability ([3]; first compound 0.01 µM): 0.215 | relative viability ([3]; first compound 0.03162 µM): 0.191 | relative viability ([3]; first compound 0.1 µM): 0.234 | relative viability ([3]; first compound 0.3162 µM): 0.199 | relative viability ([3]; first compound 1 µM): 0.186 | relative viability ([4]; first compound 0.01 µM): 1.13 | relative viability ([4]; first compound 0.03162 µM): 1.11 | relative viability ([4]; first compound 0.1 µM): 1.1 | relative viability ([4]; first compound 0.3162 µM): 0.798 | relative viability ([4]; first compound 1 µM): 0.16 | relative viability ([5]; first compound 0.01 µM): 1 | relative viability ([5]; first compound 0.03162 µM): 0.993 | relative viability ([5]; first compound 0.1 µM): 1.01 | relative viability ([5]; first compound 0.3162 µM): 1.02 | relative viability ([5]; first compound 1 µM): 0.719 | relative viability ([6]; first compound 0.01 µM): 0.627 | relative viability ([6]; first compound 0.03162 µM): 0.31 | relative viability ([6]; first compound 0.1 µM): 0.238 | relative viability ([6]; first compound 0.3162 µM): 0.176 | relative viability ([6]; first compound 1 µM): 0.156 | relative viability ([7]; first compound 0.01 µM): 0.955 | relative viability ([7]; first compound 0.03162 µM): 0.963 | relative viability ([7]; first compound 0.1 µM): 0.968 | relative viability ([7]; first compound 0.3162 µM): 0.811 | relative viability ([7]; first compound 1 µM): 0.289 | relative viability ([8]; first compound 0.01 µM): 1.12 | relative viability ([8]; first compound 0.03162 µM): 1.02 | relative viability ([8]; first compound 0.1 µM): 1.05 | relative viability ([8]; first compound 0.3162 µM): 0.823 | relative viability ([8]; first compound 1 µM): 0.198

O=C(O)c1ccc(-c2c[nH]c3ncc(-c4ccccc4)cc23)cc1C1CCCC1 + CS(=O)(=O)CCNCc1ccc(-c2ccc3ncnc(Nc4ccc(OCc5cccc(F)c5)c(Cl)c4)c3c2)o1 [Lapatinib] (partner 2 µM)
relative viability ([1]; first compound 0.04 µM): 1.01 | relative viability ([1]; first compound 0.1265 µM): 0.858 | relative viability ([1]; first compound 0.4 µM): 0.847 | relative viability ([1]; first compound 1.265 µM): 0.604 | relative viability ([2]; first compound 0.04 µM): 1.02 | relative viability ([2]; first compound 0.1265 µM): 1.09 | relative viability ([2]; first compound 0.4 µM): 0.984 | relative viability ([2]; first compound 1.265 µM): 0.78 | relative viability ([3]; first compound 0.04 µM): 0.224 | relative viability ([3]; first compound 0.1265 µM): 0.215 | relative viability ([3]; first compound 0.4 µM): 0.227 | relative viability ([3]; first compound 1.265 µM): 0.242 | relative viability ([4]; first compound 0.04 µM): 0.913 | relative viability ([4]; first compound 0.1265 µM): 1.03 | relative viability ([4]; first compound 0.4 µM): 0.974 | relative viability ([4]; first compound 1.265 µM): 0.782 | relative viability ([5]; first compound 0.04 µM): 1.02 | relative viability ([5]; first compound 0.1265 µM): 1.09 | relative viability ([5]; first compound 0.4 µM): 0.963 | relative viability ([5]; first compound 1.265 µM): 0.829 | relative viability ([6]; first compound 0.04 µM): 1.11 | relative viability ([6]; first compound 0.1265 µM): 1.44 | relative viability ([6]; first compound 0.4 µM): 1.06 | relative viability ([6]; first compound 1.265 µM): 0.929 | relative viability ([7]; first compound 0.04 µM): 0.945 | relative viability ([7]; first compound 0.1265 µM): 1 | relative viability ([7]; first compound 0.4 µM): 0.938 | relative viability ([7]; first compound 1.265 µM): 0.829 | relative viability ([8]; first compound 0.04 µM): 1.01 | relative viability ([8]; first compound 0.1265 µM): 0.985 | relative viability ([8]; first compound 0.4 µM): 0.899 | relative viability ([8]; first compound 1.265 µM): 0.837

CC1(C)CCC(c2ccc(Cl)cc2)=C(CN2CCN(c3ccc(C(=O)NS(=O)(=O)c4ccc(N[C@H](CCN5CCOCC5)CSc5ccccc5)c(S(=O)(=O)C(F)(F)F)c4)cc3)CC2)C1 [Navitoclax] + CS(=O)(=O)CCNCc1ccc(-c2ccc3ncnc(Nc4ccc(OCc5cccc(F)c5)c(Cl)c4)c3c2)o1 [Lapatinib] (partner 2 µM)
relative viability ([1]; first compound 0.005 µM): 0.855 | relative viability ([1]; first compound 0.01581 µM): 0.965 | relative viability ([1]; first compound 0.05 µM): 0.967 | relative viability ([1]; first compound 0.1581 µM): 0.763 | relative viability ([1]; first compound 0.5 µM): 0.758 | relative viability ([2]; first compound 0.005 µM): 1.14 | relative viability ([2]; first compound 0.01581 µM): 1.13 | relative viability ([2]; first compound 0.05 µM): 1.05 | relative viability ([2]; first compound 0.1581 µM): 1.04 | relative viability ([2]; first compound 0.5 µM): 1.01 | relative viability ([3]; first compound 0.005 µM): 0.181 | relative viability ([3]; first compound 0.01581 µM): 0.2 | relative viability ([3]; first compound 0.05 µM): 0.193 | relative viability ([3]; first compound 0.1581 µM): 0.245 | relative viability ([3]; first compound 0.5 µM): 0.212 | relative viability ([4]; first compound 0.005 µM): 0.659 | relative viability ([4]; first compound 0.01581 µM): 1.16 | relative viability ([4]; first compound 0.05 µM): 1.06 | relative viability ([4]; first compound 0.1581 µM): 1.02 | relative viability ([4]; first compound 0.5 µM): 0.903 | relative viability ([5]; first compound 0.005 µM): 0.988 | relative viability ([5]; first compound 0.01581 µM): 0.956 | relative viability ([5]; first compound 0.05 µM): 1.03 | relative viability ([5]; first compound 0.1581 µM): 1.05 | relative viability ([5]; first compound 0.5 µM): 1.02 | relative viability ([6]; first compound 0.005 µM): 0.928 | relative viability ([6]; first compound 0.01581 µM): 1.18 | relative viability ([6]; first compound 0.05 µM): 1.34 | relative viability ([6]; first compound 0.1581 µM): 1.27 | relative viability ([6]; first compound 0.5 µM): 1.01 | relative viability ([7]; first compound 0.005 µM): 0.931 | relative viability ([7]; first compound 0.01581 µM): 0.956 | relative viability ([7]; first compound 0.05 µM): 1 | relative viability ([7]; first compound 0.1581 µM): 0.979 | relative viability ([7]; first compound 0.5 µM): 1 | relative viability ([8]; first compound 0.005 µM): 1.06 | relative viability ([8]; first compound 0.01581 µM): 1.02 | relative viability ([8]; first compound 0.05 µM): 1.07 | relative viability ([8]; first compound 0.1581 µM): 0.945 | relative viability ([8]; first compound 0.5 µM): 0.949

Reference: the supplement of paper PMC10307832
